Test results reported in patent publication US20260250318A1, “COMPOSITIONS AND METHODS FOR CROSSING THE BLOOD BRAIN BARRIER” (VOYAGER THERAPEUTICS, INC., priority 2022, published 2026).

Assays:
[1] = test system: brains, heart, liver, muscle, and DRG of the NHPs; experiment: Maturation of TTM-001 and TTM-002 capsids, NGS enrichment in NHP tissues; format: in vivo; details: relative to AAV9 control
Outline: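 Variants carry mutations within and flanking the loop IV peptide insert: positions 450–466 were triplet-randomized, while positions 449–466 received low-frequency point mutations. The combined pool went into two NHPs, and each peptide was scored by NGS enrichment ratio against AAV9.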

brain = experiment: Matured TTM-001 and TTM-002 variants, NGS enrichment in mouse brain; format: in vivo, mice; details: relative to AAV9 control
[2] = NGS fold-enrichment of matured AAV capsid variants, NHP brain, RNA
[3] = NGS fold-enrichment of RNA, NHP brain
[4] = NGS fold-enrichment, DRG of NHPs
[5] = NGS fold-enrichment, NHP liver DNA
[6] = NGS fold-enrichment, NHP liver RNA
[7] = NGS fold-enrichment, NHP muscle
[8] = NGS fold-enrichment, RNA, brain of NHPs
[9] = NGS fold-enrichment, heart of NHPs
[10] = NGS fold-enrichment, liver DNA of NHPs
[11] = NGS fold-enrichment, liver RNA of NHPs
[12] = NGS fold-enrichment, muscle of NHPs
[13] = NGS fold-enrichment, brain of mice
[14] = NGS fold-enrichment, mouse brain

Row | Sequence | Fold Enrichment relative to AAV9, Brain (NHP) [1, 2] [fold] | Fold Enrichment relative to AAV9, DRG (NHP) ([1]; NHP DRG) [fold] | Fold Enrichment relative to AAV9, Heart (NHP) ([1]; NHP heart) [fold] | Fold Enrichment relative to AAV9, Liver DNA (NHP) ([1]; NHP liver, DNA) [fold] | Fold Enrichment relative to AAV9, Liver RNA (NHP) ([1]; NHP liver, RNA) [fold] | Fold Enrichment relative to AAV9, Muscle (NHP) ([1]; NHP muscle) [fold] | Fold Enrichment relative to AAV9, Brain (Mouse) (brain; mouse brain) [fold] | Fold Enrichment relative to AAV9, Brain (NHP) [1, 3] [fold] | Fold Enrichment relative to AAV9, DRG (NHP) ([1]; NGS fold-enrichment, NHP DRG) [fold] | Fold Enrichment relative to AAV9, Heart (NHP) ([1]; NGS fold-enrichment, NHP heart) [fold] | Fold Enrichment relative to AAV9, Liver DNA (NHP) [1, 5] [fold] | Fold Enrichment relative to AAV9, Liver RNA (NHP) [1, 6] [fold] | Fold Enrichment relative to AAV9, Muscle (NHP) [1, 7] [fold] | Fold Enrichment relative to AAV9, Brain (Mouse) (brain; [14]) [fold] | also measured
1 | KTVPTSGSPHSKAQNQQT | 51.348 | 0.013 | 0.000 | 0.338 | 1.017 | 0.000 | 102.651 |  |  |  |  |  |  |  | 
2 | KTINGSGSPHSKAQFMCT | 55.916 | 0.000 | 0.000 | 0.448 | 0.078 | 0.000 | 81.959 |  |  |  |  |  |  |  | 
3 | KTENVSGSPHSKAQNQQT |  |  |  |  |  |  |  | 88.506 | 0.000 | 0.000 | 0.112 | 0.964 | 0.000 | 108.591 | Fold Enrichment relative to AAV9, DRG (NHP) [1, 4]: 0.000 fold; Fold Enrichment relative to AAV9, Brain (NHP) [1, 8]: 88.506 fold; Fold Enrichment relative to AAV9, Heart (NHP) [1, 9]: 0.000 fold; Fold Enrichment relative to AAV9, Liver DNA (NHP) [1, 10]: 0.112 fold; Fold Enrichment relative to AAV9, Liver RNA (NHP) [1, 11]: 0.964 fold; Fold Enrichment relative to AAV9, Muscle (NHP) [1, 12]: 0.000 fold; Fold Enrichment relative to AAV9, Brain (Mouse) (brain; [13]): 108.591 fold
4 | KTINGHDSPHKSRLNQPT |  |  |  |  |  |  |  | 92.883 | 0.000 | 0.070 | 1.075 | 0.904 | 0.050 | 5.598 | 
5 | KTINGSGSPHAKAQNHQT | 50.667 | 0.211 | 0.140 | 0.090 | 0.101 | 0.051 | 80.603 |  |  |  |  |  |  |  | 
6 | KTCNKSGSPHSKAQNQQT |  |  |  |  |  |  |  | 83.992 | 0.000 | 0.000 | 0.000 | 0.283 | 0.165 | 119.496 | Fold Enrichment relative to AAV9, DRG (NHP) [1, 4]: 0.000 fold; Fold Enrichment relative to AAV9, Brain (NHP) [1, 8]: 83.992 fold; Fold Enrichment relative to AAV9, Heart (NHP) [1, 9]: 0.000 fold; Fold Enrichment relative to AAV9, Liver DNA (NHP) [1, 10]: 0.000 fold; Fold Enrichment relative to AAV9, Liver RNA (NHP) [1, 11]: 0.283 fold; Fold Enrichment relative to AAV9, Muscle (NHP) [1, 12]: 0.165 fold; Fold Enrichment relative to AAV9, Brain (Mouse) (brain; [13]): 119.496 fold
7 | KTINGSGSPHSKAQKTLT | 56.844 | 0.000 | 0.017 | 1.400 | 1.800 | 0.009 | 66.415 |  |  |  |  |  |  |  | 
8 | KTINGSGSPHSKAQDRQS | 55.137 | 1.146 | 0.016 | 0.086 | 0.644 | 0.106 | 55.701 |  |  |  |  |  |  |  | 
9 | KGGEGSGSPHSKAQNQQT | 58.472 | 0.000 | 0.034 | 0.066 | 0.037 | 0.000 | 91.023 |  |  |  |  |  |  |  | 
10 | KTINGSGSPHSKAQPLGT | 53.049 | 0.015 | 0.004 | 0.222 | 0.515 | 0.001 | 68.656 |  |  |  |  |  |  |  | 
11 | KTINGSGSPHSKAPNLQI | 58.022 | 0.000 | 0.044 | 0.243 | 1.548 | 0.000 | 55.714 |  |  |  |  |  |  |  | 
12 | KTVNGHDSPHKSGQNLHT |  |  |  |  |  |  |  | 88.080 | 0.000 | 0.080 | 0.039 | 0.000 | 0.000 | 11.363 | 
13 | KTITGHDSPHKSGQHLQT |  |  |  |  |  |  |  | 137.945 | 0.000 | 0.072 | 0.000 | 0.000 | 0.000 | 4.187 | 
14 | ETINGSGSPHSKAQNLQT |  |  |  |  |  |  |  | 90.969 | 0.221 | 1.023 | 0.813 | 0.179 | 0.197 | 107.216 | Fold Enrichment relative to AAV9, DRG (NHP) [1, 4]: 0.221 fold; Fold Enrichment relative to AAV9, Brain (NHP) [1, 8]: 90.969 fold; Fold Enrichment relative to AAV9, Heart (NHP) [1, 9]: 1.023 fold; Fold Enrichment relative to AAV9, Liver DNA (NHP) [1, 10]: 0.813 fold; Fold Enrichment relative to AAV9, Liver RNA (NHP) [1, 11]: 0.179 fold; Fold Enrichment relative to AAV9, Muscle (NHP) [1, 12]: 0.197 fold; Fold Enrichment relative to AAV9, Brain (Mouse) (brain; [13]): 107.216 fold
15 | KTEVGHDSPHKSGQNQQT |  |  |  |  |  |  |  | 112.457 | 0.000 | 0.011 | 0.138 | 0.000 | 0.000 | 13.125 | 
16 | KTVNGGGSPHSKAQSQQT |  |  |  |  |  |  |  |  |  |  |  |  |  |  | Fold Enrichment relative to AAV9, DRG (NHP) [1, 4]: 0.000 fold; Fold Enrichment relative to AAV9, Brain (NHP) [1, 8]: 67.634 fold; Fold Enrichment relative to AAV9, Heart (NHP) [1, 9]: 0.055 fold; Fold Enrichment relative to AAV9, Liver DNA (NHP) [1, 10]: 0.210 fold; Fold Enrichment relative to AAV9, Liver RNA (NHP) [1, 11]: 0.000 fold; Fold Enrichment relative to AAV9, Muscle (NHP) [1, 12]: 0.000 fold; Fold Enrichment relative to AAV9, Brain (Mouse) (brain; [13]): 160.711 fold
